Key:
Test in all cases: Test B preemergence/postemergence greenhouse plant response rating 0 to 10
bedstraw = type: in vivo, Galium aparine; conditions: for Plant response rating, Bedstraw: 0 to 10 scale
Procedure, shortened: (§1)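 Planted seeds are treated preemergence with compound dissolved in a non-phytotoxic solvent, while postemergence applications go onto plants of two to eighteen cm. Plants stay in the greenhouse twelve to sixteen days and are then rated visually relative to controls.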

purple nutsedge = type: in vivo, Cyperus rotundus; conditions: for Plant response rating, Nutsedge: 0 to 10 scale
Procedure, shortened: as §1

morningglory = type: in vivo, Ipomoea hederacea; conditions: for Plant response rating, Morningglory: 0 to 10 scale
Procedure, shortened: as §1

cotton = type: in vivo, Gossypium hirsutum; conditions: for Plant response rating, Cotton: 0 to 10 scale
Procedure, shortened: as §1

wild oat = type: in vivo, Avena fatua; conditions: for Plant response rating, Wild oat: 0 to 10 scale
Procedure, shortened: as §1

sorghum = type: in vivo, Sorghum bicolor; conditions: for Plant response rating, Sorghum: 0 to 10 scale
Procedure, shortened: as §1

rice = type: in vivo, Oryza sativa; conditions: for Plant response rating, Rice: 0 to 10 scale
Procedure, shortened: as §1

lambsquarters = type: in vivo, Chenopodium album; conditions: for Plant response rating, Lambsquarter: 0 to 10 scale
Procedure, shortened: as §1

crabgrass = type: in vivo, Digitaria spp.; conditions: for Plant response rating, Crabgrass: 0 to 10 scale
Procedure, shortened: as §1

corn = type: in vivo, Zea mays; conditions: for Plant response rating, Corn: 0 to 10 scale
Procedure, shortened: as §1

rape = type: in vivo, Brassica napus; conditions: for Plant response rating, Rape: 0 to 10 scale
Procedure, shortened: as §1

wheat = type: in vivo, Triticum aestivum; conditions: for Plant response rating, Wheat: 0 to 10 scale
Procedure, shortened: as §1

blackgrass = type: in vivo, Alopecurus myosuroides; conditions: for Plant response rating, Blackgrass: 0 to 10 scale
Procedure, shortened: as §1

wild buckwheat = type: in vivo, Polygonum convolvulus; conditions: for Plant response rating, Wild buckwheat: 0 to 10 scale
Procedure, shortened: as §1

chickweed = type: in vivo, Stellaria media; conditions: for Plant response rating, Chickweed: 0 to 10 scale
Procedure, shortened: as §1

barnyardgrass = type: in vivo, Echinochloa crus-galli; conditions: for Plant response rating, Barnyardgrass: 0 to 10 scale
Procedure, shortened: as §1

cocklebur = type: in vivo, Xanthium pensylvanicum; conditions: for Plant response rating, Cocklebur: 0 to 10 scale
Procedure, shortened: as §1

giant foxtail = type: in vivo, Setaria faberii; conditions: for Plant response rating, Giant foxtail: 0 to 10 scale
Procedure, shortened: as §1

soybean = type: in vivo, Glycine max; conditions: for Plant response rating, Soybean: 0 to 10 scale
Procedure, shortened: as §1

velvetleaf = type: in vivo, Abutilon theophrasti; conditions: for Plant response rating, Velvetleaf: 0 to 10 scale
Procedure, shortened: as §1

cheatgrass = type: in vivo, Bromus secalinus; conditions: for Plant response rating, Cheatgrass: 0 to 10 scale
Procedure, shortened: as §1

barley = type: in vivo, Hordeum vulgare; conditions: for Plant response rating, Barley: 0 to 10 scale
Procedure, shortened: as §1

sugar beet = type: in vivo, Beta vulgaris; conditions: for Plant response rating, Sugar beet: 0 to 10 scale
Procedure, shortened: as §1

## CON=C(C)c1cc(-c2nn3c(c2Cl)CCCC3)c(F)cc1Cl [Compound 82]
bedstraw; POSTEMERGENCE, Rate 50 g/ha
  Plant response rating, Bedstraw: 8
bedstraw; PREEMERGENCE, Rate 50 g/ha
  Plant response rating, Bedstraw: 0
bedstraw; PREEMERGENCE, Rate 200 g/ha
  Plant response rating (0 to 10 scale), Bedstraw: 9
bedstraw; Rate 200 g/ha, POSTEMERGENCE
  Plant response rating, Bedstraw: 9
Purple nutsedge; POSTEMERGENCE, Rate 50 g/ha
  Plant response rating, Nutsedge: 2
Purple nutsedge; PREEMERGENCE, Rate 50 g/ha
  Plant response rating, Nutsedge: 0
Purple nutsedge; PREEMERGENCE, Rate 200 g/ha
  Plant response rating (0 to 10 scale), Nutsedge: 0
Purple nutsedge; Rate 200 g/ha, POSTEMERGENCE
  Plant response rating, Nutsedge: 2
morningglory; POSTEMERGENCE, Rate 50 g/ha
  Plant response rating, Morningglory: 10
morningglory; PREEMERGENCE, Rate 50 g/ha
  Plant response rating, Morningglory: 0
morningglory; PREEMERGENCE, Rate 200 g/ha
  Plant response rating (0 to 10 scale), Morningglory: 2
morningglory; Rate 200 g/ha, POSTEMERGENCE
  Plant response rating, Morningglory: 10
cotton; POSTEMERGENCE, Rate 50 g/ha
  Plant response rating, Cotton: 10
cotton; PREEMERGENCE, Rate 50 g/ha
  Plant response rating, Cotton: 0
cotton; PREEMERGENCE, Rate 200 g/ha
  Plant response rating (0 to 10 scale), Cotton: 1
cotton; Rate 200 g/ha, POSTEMERGENCE
  Plant response rating, Cotton: 10
Wild oat; POSTEMERGENCE, Rate 50 g/ha
  Plant response rating, Wild oat: 2
Wild oat; PREEMERGENCE, Rate 50 g/ha
  Plant response rating, Wild oat: 2
Wild oat; PREEMERGENCE, Rate 200 g/ha
  Plant response rating (0 to 10 scale), Wild oat: 7
Wild oat; Rate 200 g/ha, POSTEMERGENCE
  Plant response rating, Wild oat: 4
sorghum; POSTEMERGENCE, Rate 50 g/ha
  Plant response rating, Sorghum: 2
sorghum; PREEMERGENCE, Rate 50 g/ha
  Plant response rating, Sorghum: 0
sorghum; PREEMERGENCE, Rate 200 g/ha
  Plant response rating (0 to 10 scale), Sorghum: 2
sorghum; Rate 200 g/ha, POSTEMERGENCE
  Plant response rating, Sorghum: 4
rice; POSTEMERGENCE, Rate 50 g/ha
  Plant response rating, Rice: 4
rice; PREEMERGENCE, Rate 50 g/ha
  Plant response rating, Rice: 0
rice; PREEMERGENCE, Rate 200 g/ha
  Plant response rating (0 to 10 scale), Rice: 2
rice; Rate 200 g/ha, POSTEMERGENCE
  Plant response rating, Rice: 6
lambsquarters; POSTEMERGENCE, Rate 50 g/ha
  Plant response rating, Lambsquarter: 7
lambsquarters; PREEMERGENCE, Rate 50 g/ha
  Plant response rating, Lambsquarter: 10
lambsquarters; PREEMERGENCE, Rate 200 g/ha
  Plant response rating (0 to 10 scale), Lambsquarter: 10
lambsquarters; Rate 200 g/ha, POSTEMERGENCE
  Plant response rating, Lambsquarter: 9
crabgrass; POSTEMERGENCE, Rate 50 g/ha
  Plant response rating, Crabgrass: 3
crabgrass; PREEMERGENCE, Rate 50 g/ha
  Plant response rating, Crabgrass: 3
crabgrass; PREEMERGENCE, Rate 200 g/ha
  Plant response rating (0 to 10 scale), Crabgrass: 7
crabgrass; Rate 200 g/ha, POSTEMERGENCE
  Plant response rating, Crabgrass: 4
corn; POSTEMERGENCE, Rate 50 g/ha
  Plant response rating, Corn: 3
corn; PREEMERGENCE, Rate 50 g/ha
  Plant response rating, Corn: 0
corn; PREEMERGENCE, Rate 200 g/ha
  Plant response rating (0 to 10 scale), Corn: 3
corn; Rate 200 g/ha, POSTEMERGENCE
  Plant response rating, Corn: 4
rape; POSTEMERGENCE, Rate 50 g/ha
  Plant response rating, Rape: 5
rape; PREEMERGENCE, Rate 50 g/ha
  Plant response rating, Rape: 0
rape; PREEMERGENCE, Rate 200 g/ha
  Plant response rating (0 to 10 scale), Rape: 6
rape; Rate 200 g/ha, POSTEMERGENCE
  Plant response rating, Rape: 7
wheat; POSTEMERGENCE, Rate 50 g/ha
  Plant response rating, Wheat: 3
wheat; PREEMERGENCE, Rate 50 g/ha
  Plant response rating, Wheat: 0
wheat; PREEMERGENCE, Rate 200 g/ha
  Plant response rating (0 to 10 scale), Wheat: 2
wheat; Rate 200 g/ha, POSTEMERGENCE
  Plant response rating, Wheat: 4
blackgrass; POSTEMERGENCE, Rate 50 g/ha
  Plant response rating, Blackgrass: 2
blackgrass; PREEMERGENCE, Rate 50 g/ha
  Plant response rating, Blackgrass: 0
blackgrass; PREEMERGENCE, Rate 200 g/ha
  Plant response rating (0 to 10 scale), Blackgrass: 4
blackgrass; Rate 200 g/ha, POSTEMERGENCE
  Plant response rating, Blackgrass: 3
Wild buckwheat; POSTEMERGENCE, Rate 50 g/ha
  Plant response rating, Wild buckwheat: 10
Wild buckwheat; PREEMERGENCE, Rate 50 g/ha
  Plant response rating, Wild buckwheat: 7
Wild buckwheat; PREEMERGENCE, Rate 200 g/ha
  Plant response rating (0 to 10 scale), Wild buckwheat: 9
Wild buckwheat; Rate 200 g/ha, POSTEMERGENCE
  Plant response rating, Wild buckwheat: 10
chickweed; POSTEMERGENCE, Rate 50 g/ha
  Plant response rating, Chickweed: 2
chickweed; PREEMERGENCE, Rate 50 g/ha
  Plant response rating, Chickweed: 6
chickweed; PREEMERGENCE, Rate 200 g/ha
  Plant response rating (0 to 10 scale), Chickweed: 0
chickweed; Rate 200 g/ha, POSTEMERGENCE
  Plant response rating, Chickweed: 3
barnyardgrass; POSTEMERGENCE, Rate 50 g/ha
  Plant response rating, Barnyardgrass: 6
barnyardgrass; PREEMERGENCE, Rate 50 g/ha
  Plant response rating, Barnyardgrass: 2
barnyardgrass; PREEMERGENCE, Rate 200 g/ha
  Plant response rating (0 to 10 scale), Barnyardgrass: 6
barnyardgrass; Rate 200 g/ha, POSTEMERGENCE
  Plant response rating, Barnyardgrass: 7
cocklebur; POSTEMERGENCE, Rate 50 g/ha
  Plant response rating, Cocklebur: 7
cocklebur; PREEMERGENCE, Rate 50 g/ha
  Plant response rating, Cocklebur: 0
cocklebur; PREEMERGENCE, Rate 200 g/ha
  Plant response rating (0 to 10 scale), Cocklebur: 0
cocklebur; Rate 200 g/ha, POSTEMERGENCE
  Plant response rating, Cocklebur: 8
Giant foxtail; POSTEMERGENCE, Rate 50 g/ha
  Plant response rating, Giant foxtail: 4
Giant foxtail; PREEMERGENCE, Rate 50 g/ha
  Plant response rating, Giant foxtail: 3
Giant foxtail; PREEMERGENCE, Rate 200 g/ha
  Plant response rating (0 to 10 scale), Giant foxtail: 6
Giant foxtail; Rate 200 g/ha, POSTEMERGENCE
  Plant response rating, Giant foxtail: 5
soybean; POSTEMERGENCE, Rate 50 g/ha
  Plant response rating, Soybean: 4
soybean; PREEMERGENCE, Rate 50 g/ha
  Plant response rating, Soybean: 0
soybean; PREEMERGENCE, Rate 200 g/ha
  Plant response rating (0 to 10 scale), Soybean: 6
soybean; Rate 200 g/ha, POSTEMERGENCE
  Plant response rating, Soybean: 6
velvetleaf; POSTEMERGENCE, Rate 50 g/ha
  Plant response rating, Velvetleaf: 10
velvetleaf; PREEMERGENCE, Rate 50 g/ha
  Plant response rating, Velvetleaf: 0
velvetleaf; PREEMERGENCE, Rate 200 g/ha
  Plant response rating (0 to 10 scale), Velvetleaf: 10
velvetleaf; Rate 200 g/ha, POSTEMERGENCE
  Plant response rating, Velvetleaf: 10
cheatgrass; POSTEMERGENCE, Rate 50 g/ha
  Plant response rating, Cheatgrass: 2
cheatgrass; PREEMERGENCE, Rate 50 g/ha
  Plant response rating, Cheatgrass: 2
cheatgrass; PREEMERGENCE, Rate 200 g/ha
  Plant response rating (0 to 10 scale), Cheatgrass: 6
cheatgrass; Rate 200 g/ha, POSTEMERGENCE
  Plant response rating, Cheatgrass: 3
barley; POSTEMERGENCE, Rate 50 g/ha
  Plant response rating, Barley: 2
barley; PREEMERGENCE, Rate 50 g/ha
  Plant response rating, Barley: 0
barley; PREEMERGENCE, Rate 200 g/ha
  Plant response rating (0 to 10 scale), Barley: 0
barley; Rate 200 g/ha, POSTEMERGENCE
  Plant response rating, Barley: 3
Sugar beet; POSTEMERGENCE, Rate 50 g/ha
  Plant response rating, Sugar beet: 10
Sugar beet; PREEMERGENCE, Rate 50 g/ha
  Plant response rating, Sugar beet: 8
Sugar beet; PREEMERGENCE, Rate 200 g/ha
  Plant response rating (0 to 10 scale), Sugar beet: 10
Sugar beet; Rate 200 g/ha, POSTEMERGENCE
  Plant response rating, Sugar beet: 10

Reference: patent US6358885B1, “Substituted phenylheterocyclic herbicides” (Mississippi State University, priority 1992, dated 2002)
